Results: PMC5267425, “Identification of small molecule modulators of HIV-1 Tat and Rev protein accumulation” (Retrovirology, 2017)

System: HeLa rtTA HIV∆Mls cells
Test: Trypan blue exclusion, HeLa
Type: cell-based
Conditions: up to 10 µM
Protocol: Effects of compound treatment on cellular metabolism was assessed by an XTT-based in vitro toxicology assay kit (Sigma-Aldrich) or Trypan blue exclusion (Life Technologies) as proxy for degree of cytotoxicity and expressed relative to DMSO control treatment. For measurement of cell viability using XTT, culture media was removed after 24, 72, and 96 h of compound treatment, replaced with 20% XTT solution and incubated at 37 °C in a 5% CO2 humidified incubator for 2–6 h, and relative cell viability was measured in compound treated cells relative to DMSO-treated cells. Cell viability measurements in CEM-GXR cells are described above.

For `O=C(NC(=S)NNC(=O)c1ccccc1O)c1ccc(-c2ccccc2)cc1` [Compound 833, N-([2-(2-hydroxybenzoyl)hydrazino]carbonothioyl}-4-biphenylcarboxamide], the Trypan blue exclusion was “no change”.
